Patent US20230073777A1, “CYCLIC-AMP RESPONSE ELEMENT BINDING PROTEIN (CBP) AND/OR ADENOVIRAL E1A BINDING PROTEIN OF 300 KDA (P300) DEGRADATION COMPOUNDS AND METHODS OF USE” (CULLGEN (SHANGHAI), INC., priority 2019, published 2023)

Key:
LNCaP cells = test: LNCaP cell viability assay (CellTiter-Glo); assay type: cell-based; settings: Homo sapiens, 72 h; LNCaP prostate cancer cell viability inhibition, 3 days, CellTiter-Glo (Table 3)
Summary of the method: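 Three-day treatment of LNCaP cells (5000 per well) across a 12-point, 3-fold dilution series starting at 10 μM. ATP luminescence (CellTiter-Glo) relative to untreated controls gave dose-response curves fitted nonlinearly for IC50.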

P300 = P300 (Homo sapiens, UniProt Q09472); test: Immunoblotting of P300 protein levels in LNCaP or 22RV1 cells; assay type: cell-based; design: LNCaP or 22RV1 cells that express CBP/P300 proteins were treated with GNE-781 or the bivalent compounds; endogenous in cells; host or cells: LNCaP (clone FGC) or 22RV1 cells; settings: percentage of inhibition of p300 at 10 nM (Table 3); read-out: Degradation (10 nM)
Summary of the method: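 P300/CBP levels quantified by chemiluminescent immunoblot band densitometry, normalized against tubulin or vinculin loading controls. Lysates came from LNCaP or 22RV1 cells exposed to compounds or DMSO vehicle for indicated times.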

P300, sequence (Q09472 whole entry): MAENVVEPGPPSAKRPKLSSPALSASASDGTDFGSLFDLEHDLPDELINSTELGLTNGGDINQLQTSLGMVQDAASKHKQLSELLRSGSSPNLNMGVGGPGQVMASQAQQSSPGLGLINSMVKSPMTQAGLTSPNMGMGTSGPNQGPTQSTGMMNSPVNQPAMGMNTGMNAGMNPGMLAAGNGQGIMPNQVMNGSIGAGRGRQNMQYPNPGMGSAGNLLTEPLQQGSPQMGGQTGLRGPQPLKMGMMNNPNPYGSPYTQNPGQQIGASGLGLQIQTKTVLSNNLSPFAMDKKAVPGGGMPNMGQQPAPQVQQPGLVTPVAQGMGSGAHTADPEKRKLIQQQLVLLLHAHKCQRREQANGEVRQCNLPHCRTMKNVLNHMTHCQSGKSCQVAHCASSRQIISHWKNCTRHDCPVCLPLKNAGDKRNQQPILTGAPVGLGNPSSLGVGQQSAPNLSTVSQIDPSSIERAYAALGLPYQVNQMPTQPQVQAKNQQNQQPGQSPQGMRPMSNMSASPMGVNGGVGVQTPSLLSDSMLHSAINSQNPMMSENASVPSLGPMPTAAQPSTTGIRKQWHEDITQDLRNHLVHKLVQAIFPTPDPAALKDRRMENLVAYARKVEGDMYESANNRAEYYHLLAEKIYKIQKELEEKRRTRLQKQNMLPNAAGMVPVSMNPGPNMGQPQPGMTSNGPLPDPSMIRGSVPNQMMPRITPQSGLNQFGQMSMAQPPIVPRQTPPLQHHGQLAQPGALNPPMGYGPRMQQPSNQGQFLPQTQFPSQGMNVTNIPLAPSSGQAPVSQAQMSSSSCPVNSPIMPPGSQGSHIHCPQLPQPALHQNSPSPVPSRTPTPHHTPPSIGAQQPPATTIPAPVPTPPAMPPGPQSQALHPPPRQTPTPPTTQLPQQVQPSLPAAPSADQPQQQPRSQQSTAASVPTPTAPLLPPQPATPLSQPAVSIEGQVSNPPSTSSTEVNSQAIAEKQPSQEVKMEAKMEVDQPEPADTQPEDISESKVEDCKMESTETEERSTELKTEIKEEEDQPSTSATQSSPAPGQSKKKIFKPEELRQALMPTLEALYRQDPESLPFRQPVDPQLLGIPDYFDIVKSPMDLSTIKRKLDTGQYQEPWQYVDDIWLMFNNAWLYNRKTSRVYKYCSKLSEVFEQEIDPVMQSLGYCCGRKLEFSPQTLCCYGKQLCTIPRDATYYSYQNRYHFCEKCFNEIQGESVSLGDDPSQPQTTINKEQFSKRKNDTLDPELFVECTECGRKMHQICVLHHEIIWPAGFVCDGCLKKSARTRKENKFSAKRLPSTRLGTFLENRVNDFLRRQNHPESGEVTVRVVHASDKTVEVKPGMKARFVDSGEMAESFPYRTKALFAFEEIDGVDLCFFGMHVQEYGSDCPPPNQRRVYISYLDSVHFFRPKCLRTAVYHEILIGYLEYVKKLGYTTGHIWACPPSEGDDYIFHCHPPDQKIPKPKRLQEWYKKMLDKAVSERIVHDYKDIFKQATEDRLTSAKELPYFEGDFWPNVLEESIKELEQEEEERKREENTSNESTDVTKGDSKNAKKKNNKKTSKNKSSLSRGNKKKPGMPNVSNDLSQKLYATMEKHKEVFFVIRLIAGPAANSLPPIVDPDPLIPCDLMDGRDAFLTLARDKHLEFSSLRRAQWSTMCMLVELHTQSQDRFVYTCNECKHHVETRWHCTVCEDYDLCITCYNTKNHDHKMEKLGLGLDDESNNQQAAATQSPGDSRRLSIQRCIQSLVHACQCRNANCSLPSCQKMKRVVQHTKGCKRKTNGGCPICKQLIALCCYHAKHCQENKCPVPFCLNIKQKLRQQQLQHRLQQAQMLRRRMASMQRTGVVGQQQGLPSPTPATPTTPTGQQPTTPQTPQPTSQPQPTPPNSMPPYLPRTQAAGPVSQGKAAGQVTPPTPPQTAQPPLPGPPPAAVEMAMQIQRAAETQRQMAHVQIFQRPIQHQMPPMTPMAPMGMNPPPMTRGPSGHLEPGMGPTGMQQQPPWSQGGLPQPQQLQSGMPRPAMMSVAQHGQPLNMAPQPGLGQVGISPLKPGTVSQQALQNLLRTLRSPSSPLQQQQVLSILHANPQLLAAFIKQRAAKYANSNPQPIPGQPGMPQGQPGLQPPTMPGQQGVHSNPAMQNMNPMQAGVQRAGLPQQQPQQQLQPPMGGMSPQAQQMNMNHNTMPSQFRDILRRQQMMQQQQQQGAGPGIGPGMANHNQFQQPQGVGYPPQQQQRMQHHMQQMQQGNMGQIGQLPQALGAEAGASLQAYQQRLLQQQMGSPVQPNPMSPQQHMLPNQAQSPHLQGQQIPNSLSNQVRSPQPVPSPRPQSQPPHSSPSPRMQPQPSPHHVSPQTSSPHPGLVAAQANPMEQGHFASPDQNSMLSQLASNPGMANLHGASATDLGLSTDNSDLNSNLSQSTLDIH

CC(=O)N1CCc2c(c(N3CCCc4cc(-c5cnn(C)c5)c(C(F)F)cc43)nn2C2CCN(C(=O)CCCCCCn3c(=O)n(C4CCC(=O)NC4=O)c4ccccc43)CC2)C1 (stereo not drawn) [P-108, 3-(3-(7-(4-(5-Acetyl-3-(7-(difluoromethyl)-6-(1-methyl-1H-pyrazol-4-yl)-3,4-dihydroquinolin-1(2H)-yl)-4,5,6,7-tetrahydro-1H-pyrazolo[4,3-c]pyridin-1-yl)piperidin-1-yl)-7-oxoheptyl)-2-oxo-2,3-dihydro-1H-benzo[d]imidazol-1-yl)piperidine-2,6-dione]
IC50 (LNCaP cells): 16.5 nM | inhibition at 0.01 µM (P300): 50 to 80%

CNC(=O)N1CCc2c(c(N3CCCc4cc(-c5cnn(C)c5)c(C(F)F)cc43)nn2C2CCN(C(=O)CCCCCNc3cccc4c3n(C)c(=O)n4C3CCC(=O)NC3=O)CC2)C1 (stereo not drawn) [P-109, 3-(7-(difluoromethyl)-6-(1-methyl-1H-pyrazol-4-yl)-3,4-dihydroquinolin-1(2H)-yl)-1-(1-(6-((1-(2,6-dioxopiperidin-3-yl)-3-methyl-2-oxo-2,3-dihydro-1H-benzo[d]imidazol-4-yl)amino)hexanoyl)piperidin-4-yl)-N-methyl-1,4,6,7-tetrahydro-5H-pyrazolo[4,3-c]pyridine-5-carboxamide]
IC50 (LNCaP cells): 12.9 nM | inhibition at 0.01 µM (P300): > 80%

CC(=O)N1CCc2c(c(N3CCCc4cc(-c5cnn(C)c5)c(C(F)F)cc43)nn2C2CCN(C(=O)CCCCCNc3cccc4c3n(C)c(=O)n4C3CCC(=O)NC3=O)CC2)C1 (stereo not drawn) [P-110, 3-(4-((6-(4-(5-acetyl-3-(7-(difluoromethyl)-6-(1-methyl-1H-pyrazol-4-yl)-3,4-dihydroquinolin-1(2H)-yl)-4,5,6,7-tetrahydro-1H-pyrazolo[4,3-c]pyridin-1-yl)piperidin-1-yl)-6-oxohexyl)amino)-3-methyl-2-oxo-2,3-dihydro-1H-benzo[d]imidazol-1-yl)piperidine-2,6-dione]
IC50 (LNCaP cells): 31.1 nM | inhibition at 0.01 µM (P300): > 80%

CC(=O)N1CCc2c(c(N3CCCc4cc(-c5cnn(C)c5)c(C(F)F)cc43)nn2C2CCN(C(=O)CCCCCCNc3cccc4c3n(C)c(=O)n4C3CCC(=O)NC3=O)CC2)C1 (stereo not drawn) [P-111, 3-(4-((7-(4-(5-acetyl-3-(7-(difluoromethyl)-6-(1-methyl-1H-pyrazol-4-yl)-3,4-dihydroquinolin-1(2H)-yl)-4,5,6,7-tetrahydro-1H-pyrazolo[4,3-c]pyridin-1-yl)piperidin-1-yl)-7-oxoheptyl)amino)-3-methyl-2-oxo-2,3-dihydro-1H-benzo[d]imidazol-1-yl)piperidine-2,6-dione]
IC50 (LNCaP cells): 7.6 nM | inhibition at 0.01 µM (P300): > 80%

CC(=O)N1CCc2c(c(N3CCCc4cc(-c5cnn(C)c5)c(C(F)F)cc43)nn2C2CCN(CCCCCCNc3cccc4c3C(=O)N(C3CCC(=O)NC3=O)C4=O)CC2)C1 (stereo not drawn) [P-112, 4-((6-(4-(5-acetyl-3-(7-(difluoromethyl)-6-(1-methyl-1H-pyrazol-4-yl)-3,4-dihydroquinolin-1(2H)-yl)-4,5,6,7-tetrahydro-1H-pyrazolo[4,3-c]pyridin-1-yl)piperidin-1-yl)hexyl)amino)-2-(2,6-dioxopiperidin-3-yl)isoindoline-1,3-dione]
IC50 (LNCaP cells): 2.1 nM | inhibition at 0.01 µM (P300): > 80%

CC(=O)N1CCc2c(c(N3CCCc4cc(-c5cnn(C)c5)c(C(F)F)cc43)nn2C2CCN(CCCCCCOc3cccc4c3C(=O)N(C3CCC(=O)NC3=O)C4=O)CC2)C1 (stereo not drawn) [P-113, 4-((6-(4-(5-acetyl-3-(7-(difluoromethyl)-6-(1-methyl-1H-pyrazol-4-yl)-3,4-dihydroquinolin-1(2H)-yl)-4,5,6,7-tetrahydro-1H-pyrazolo[4,3-c]pyridin-1-yl)piperidin-1-yl)hexyl)oxy)-2-(2,6-dioxopiperidin-3-yl)isoindoline-1,3-dione]
IC50 (LNCaP cells): 14.8 nM | inhibition at 0.01 µM (P300): > 80%

CNC(=O)N1CCc2c(c(N3CCCc4cc(-c5cnn(C)c5)c(C(F)F)cc43)nn2C2CCN(C(=O)CCCCCCNc3cccc4c3n(C)c(=O)n4C3CCC(=O)NC3=O)CC2)C1 (stereo not drawn) [P-114, 3-(7-(Difluoromethyl)-6-(1-methyl-1H-pyrazol-4-yl)-3,4-dihydroquinolin-1(2H)-yl)-1-(1-(7-((1-(2,6-dioxopiperidin-3-yl)-3-methyl-2-oxo-2,3-dihydro-1H-benzo[d]imidazol-4-yl)amino)heptanoyl)piperidin-4-yl)-N-methyl-1,4,6,7-tetrahydro-5H-pyrazolo[4,3-c]pyridine-5-carboxamide]
IC50 (LNCaP cells): 877 nM | inhibition at 0.01 µM (P300): 20 to 50%

CNC(=O)N1CCc2c(c(N3CCCc4cc(-c5cnn(C)c5)c(C(F)F)cc43)nn2C2CCN(C(=O)CCCCCNc3ccc4c(c3)n(C)c(=O)n4C3CCC(=O)NC3=O)CC2)C1 (stereo not drawn) [P-115, 3-(7-(difluoromethyl)-6-(1-methyl-1H-pyrazol-4-yl)-3,4-dihydroquinolin-1(2H)-yl)-1-(1-(6-((1-(2,6-dioxopiperidin-3-yl)-3-methyl-2-oxo-2,3-dihydro-1H-benzo[d]imidazol-5-yl)amino)hexanoyl)piperidin-4-yl)-N-methyl-1,4,6,7-tetrahydro-5H-pyrazolo[4,3-c]pyridine-5-carboxamide]
IC50 (LNCaP cells): 7.1 nM | inhibition at 0.01 µM (P300): > 80%

CC(=O)N1CCc2c(c(N3CCCc4cc(-c5cnn(C)c5)c(C(F)F)cc43)nn2C2CCN(C(=O)CCCCCNc3ccc4c(c3)n(C)c(=O)n4C3CCC(=O)NC3=O)CC2)C1 (stereo not drawn) [P-116, 3-(5-((6-(4-(5-acetyl-3-(7-(difluoromethyl)-6-(1-methyl-1H-pyrazol-4-yl)-3,4-dihydroquinolin-1(2H)-yl)-4,5,6,7-tetrahydro-1H-pyrazolo[4,3-c]pyridin-1-yl)piperidin-1-yl)-6-oxohexyl)amino)-3-methyl-2-oxo-2,3-dihydro-1H-benzo[d]imidazol-1-yl)piperidine-2,6-dione]
IC50 (LNCaP cells): 9.6 nM | inhibition at 0.01 µM (P300): > 80%

CC(=O)N1CCc2c(c(N3CCCc4cc(-c5cnn(C)c5)c(C(F)F)cc43)nn2C2CCN(C(=O)CCCCCOc3cccc4c3C(=O)N(C3CCC(=O)NC3=O)C4=O)CC2)C1 (stereo not drawn) [P-117, 4-((6-(4-(5-Acetyl-3-(7-(difluoromethyl)-6-(1-methyl-1H-pyrazol-4-yl)-3,4-dihydroquinolin-1(2H)-yl)-4,5,6,7-tetrahydro-1H-pyrazolo[4,3-c]pyridin-1-yl)piperidin-1-yl)-6-oxohexyl)oxy)-2-(2,6-dioxopiperidin-3-yl)isoindoline-1,3-dione]
IC50 (LNCaP cells): 41.2 nM | inhibition at 0.01 µM (P300): > 80%

CC(=O)N1CCc2c(c(N3CCCc4cc(-c5cnn(C)c5)c(C(F)F)cc43)nn2C2CCN(C(=O)CCCCCCc3cccc4c3C(=O)N(C3CCC(=O)NC3=O)C4=O)CC2)C1 (stereo not drawn) [P-118, 4-(7-(4-(5-Acetyl-3-(7-(difluoromethyl)-6-(1-methyl-1H-pyrazol-4-yl)-3,4-dihydroquinolin-1(2H)-yl)-4,5,6,7-tetrahydro-1H-pyrazolo[4,3-c]pyridin-1-yl)piperidin-1-yl)-7-oxoheptyl)-2-(2,6-dioxopiperidin-3-yl)isoindoline-1,3-dione]
IC50 (LNCaP cells): 17.8 nM | inhibition at 0.01 µM (P300): 20 to 50%

CC(=O)N1CCc2c(c(N3CCCc4cc(-c5cnn(C)c5)c(C(F)F)cc43)nn2C2CCN(C(=O)CCCCCCCNc3ccc4c(c3)C(=O)N(C3CCC(=O)NC3=O)C4=O)CC2)C1 (stereo not drawn) [P-119, 5-((8-(4-(5-acetyl-3-(7-(difluoromethyl)-6-(1-methyl-1H-pyrazol-4-yl)-3,4-dihydroquinolin-1(2H)-yl)-4,5,6,7-tetrahydro-1H-pyrazolo[4,3-c]pyridin-1-yl)piperidin-1-yl)-8-oxooctyl)amino)-2-(2,6-dioxopiperidin-3-yl)isoindoline-1,3-dione]
IC50 (LNCaP cells): 1.7 nM | inhibition at 0.01 µM (P300): > 80%

CC(=O)N1CCc2c(c(N3CCCc4cc(-c5cnn(C)c5)c(C(F)F)cc43)nn2C2CCN(C(=O)CCCCCNc3ccc4c(c3)C(=O)N(C3CCC(=O)NC3=O)C4=O)CC2)C1 (stereo not drawn) [P-120, 5-((6-(4-(5-acetyl-3-(7-(difluoromethyl)-6-(1-methyl-1H-pyrazol-4-yl)-3,4-dihydroquinolin-1(2H)-yl)-4,5,6,7-tetrahydro-1H-pyrazolo[4,3-c]pyridin-1-yl)piperidin-1-yl)-6-oxohexyl)amino)-2-(2,6-dioxopiperidin-3-yl)isoindoline-1,3-dione]
IC50 (LNCaP cells): 9.4 nM | inhibition at 0.01 µM (P300): > 80%

CC(=O)N1CCc2c(c(N3CCCc4cc(-c5cnn(C)c5)c(C(F)F)cc43)nn2C2CCN(C(=O)CCCCCOc3cccc4c3CN(C3CCC(=O)NC3=O)C4=O)CC2)C1 (stereo not drawn) [P-121, 3-(4-((6-(4-(5-Acetyl-3-(7-(difluoromethyl)-6-(1-methyl-1H-pyrazol-4-yl)-3,4-dihydroquinolin-1(2H)-yl)-4,5,6,7-tetrahydro-1H-pyrazolo[4,3-c]pyridin-1-yl)piperidin-1-yl)-6-oxohexyl)oxy)-1-oxoisoindolin-2-yl)piperidine-2,6-dione]
IC50 (LNCaP cells): 28.8 nM | inhibition at 0.01 µM (P300): > 80%

CC(=O)N1CCc2c(c(N3CCCc4cc(-c5cnn(C)c5)c(C(F)F)cc43)nn2C2CCN(C(=O)CCCCC#Cc3cccc4c3CN(C3CCC(=O)NC3=O)C4=O)CC2)C1 (stereo not drawn) [P-122, 3-(4-(7-(4-(5-Acetyl-3-(7-(difluoromethyl)-6-(1-methyl-1H-pyrazol-4-yl)-3,4-dihydroquinolin-1(2H)-yl)-4,5,6,7-tetrahydro-1H-pyrazolo[4,3-c]pyridin-1-yl)piperidin-1-yl)-7-oxohept-1-yn-1-yl)-1-oxoisoindolin-2-yl)piperidine-2,6-dione]
IC50 (LNCaP cells): 84.4 nM | inhibition at 0.01 µM (P300): > 80%
